In brackets after ≈: the same amount, converted by molar mass. Entries after “also recorded” stand apart in the source; their conditions may differ.
Key:
live bait worms [1] = assay: Coloring and viability of live bait worms kept in peat loam medium mixed with colorant (8 oz cup, 12 worms); format: in vivo; conditions: for Effectiveness as worm coloring agent (coloration of worms) / Worm viability / mortality: powdered colorant in peat loam, 8 oz cup, inspected at 24 hrs, 36 hrs, 3-4 weeks
Excerpt: The inventor conducted numerous experiments to determine the effectiveness of a number of color additives to color live bait worms.
Experimental procedure. Each powdered colorant was mixed with peat loam medium and added to an 8 oz cup containing 12 healthy and natural worms. Concentrations given as mg colorant per 8 oz cup containing about 120 g peat loam. Worms were inspected for color and viability 24 hrs., 36 hrs., and when still viable, 3-4 weeks later.

live bait worms [2] = assay: Incubation and storage of worms in bait cup topped with coloring medium; format: in vivo; conditions: 8-24 worms, 8 to 12 ounce cup, coloring medium 5 g colorant per kg, stored at 34° F. to 38° F.
Description: Alternatively, after the incubation, the above bulk colored worms can be divided into smaller amounts and stored in actual point-of-sale containers ready for use as bait by the end user rather than in bulk containers. For example, 8-24 of the worms previously colored in bulk as described above can be added to a normal 8 to 12 ounce Styrofoam, paper, or plastic bait cup and topped with the coloring medium (containing 5 g colorant D&C Yellow 8 per kg of the storage medium). When the container is capped with a lid and stored at 34° F. to 38° F., the worms will remain viable, and colored for about four to six weeks and are ready for immediate use as bait.
In another application of the process, the incubation and storage can be carried out in the same vessel. […]. In this case, the regular, uncolored, worms require an initial incubation period of about one week to lapsed before the worms acquire the desired color and intensity to be used as colored bait worms. The worms will then remain colored and viable in the bait cup of about four to six weeks. In both examples, the worms can be kept viable and colored indefinitely, if required, simply by changing the coloring medium once it has been consumed.

[3] = Solubility of colorant in water; conditions: at 25° C.
[4] = mg colorant per 8 oz cup containing about 120 g peat loam, 12 worms
[5] = 12 worms, listed as D&C Yellow No. 8

O=C1OC2(c3ccc([O-])cc3Oc3cc([O-])ccc32)c2ccccc21.[Na+].[Na+] [D & C Yellow 8, uranine]
Amount at which dye remains non-toxic to worms (live bait worms [1]; bait cup containing 12 worms): about 2500 mg/8 ounce bait cup
Amount at which dye remains non-toxic, per worm (live bait worms [1]; from 2500 mg/8 ounce cup with 12 worms): about 150 mg dye per worm
Concentration at which worms remain very healthy and viable (live bait worms [1]; [4]): centration of >2500 mg.
Lowest concentration at which worms become and remain colored (live bait worms [1]; [4]): ≤ 25 mg. Preferred range
Effectiveness as worm coloring agent (coloration of worms) (live bait worms [1]; 12 worms): main bright Chartreuse
Worm viability / mortality (live bait worms [1]; 12 worms): very healthy and viable
Effectiveness as worm coloring agent (coloration of worms) (live bait worms [1]; [5]): intense fluorescent chartreuse color
Worm viability / mortality (live bait worms [1]; [5]): non-toxic to worms; also recorded: not detrimental to the viability of the worms
Time worms remain viable and colored in bait cup (live bait worms [2]): about four to six

COc1cc(S(=O)(=O)[O-])c(C)cc1N=Nc1c(O)ccc2cc(S(=O)(=O)[O-])ccc12.[Na+].[Na+] [FD & C Red 40]
Effectiveness as worm coloring agent (coloration of worms) (live bait worms [1]; 12 worms): No coloration. Worms
Worm viability / mortality (live bait worms [1]; 12 worms): remain viable
Solubility in water [3]: 22 mg/mL

O=C1/C(=C2\Nc3ccc(S(=O)(=O)[O-])cc3C2=O)Nc2ccc(S(=O)(=O)[O-])cc21.[Na+].[Na+] [FD & C Blue 2]
Effectiveness as worm coloring agent (coloration of worms) (live bait worms [1]; 12 worms): No colorization. Worms
Worm viability / mortality (live bait worms [1]; 12 worms): remain viable
Solubility in water [3]: 2 mg/mL

O=S(=O)([O-])c1ccc(N=Nc2c(O)ccc3cc(S(=O)(=O)[O-])ccc23)cc1.[Na+].[Na+] [FD & C Yellow 6]
Effectiveness as worm coloring agent (coloration of worms) (live bait worms [1]; 12 worms): No coloration. Worms
Worm viability / mortality (live bait worms [1]; 12 worms): remain viable

O=C([O-])c1c(Cl)c(Cl)c(Cl)c(Cl)c1-c1c2cc(Br)c(=O)c(Br)c-2oc2c(Br)c([O-])c(Br)cc12.[Na+].[Na+] [D & C Red 28]
Concentration range in which worms become colored (live bait worms [1]; [4]): tration between 50-800 mg
Effectiveness as worm coloring agent (coloration of worms) (live bait worms [1]; 12 worms): Worms become pinkish
Worm viability / mortality (live bait worms [1]; 12 worms): mg. Increased mortality

O=C(O)c1nn(-c2ccc(S(=O)(=O)O)cc2)c(O)c1N=Nc1ccc(S(=O)(=O)O)cc1 [FD & C Yellow 5]
Effectiveness as worm coloring agent (coloration of worms) (live bait worms [1]; 12 worms): Color not retained.
Worm viability / mortality (live bait worms [1]; 12 worms): Worms remain viable
Solubility in water [3]: 20 mg/mL (≈ 42.7 mM)

CCN(Cc1cccc(S(=O)(=O)[O-])c1)c1ccc(C(=C2C=CC(=[N+](CC)Cc3cccc(S(=O)(=O)[O-])c3)C=C2)c2ccccc2S(=O)(=O)[O-])cc1.[Na+].[Na+] [FD & C Blue 1]
Effectiveness as worm coloring agent (coloration of worms) (live bait worms [1]; 12 worms): main blue. Worms
Worm viability / mortality (live bait worms [1]; 12 worms): viable if carefully

Source: patent US20010013317A1, “Medium for coloring live bait worms” (priority 1999, published 2001)
